Data taken from patent US7138246B2, “Methods for identifying or screening for agents that modulate 17β-HSD3” (Bristol-Myers Squibb Company, priority 2004, dated 2006).
pIC50: −log10 of the molar value.

What was measured:
[1] = target: T1, 17β-HSD3 (Homo sapiens, UniProt P37058); assay: 17β-HSD3 SEAP assay (PSA reporter) in MDA MB 453/17β-HSD3 cells; format: cell-based; set-up: expressed in transfected cells; conditions: MDA-MB453-17β-HSD3 cells, PSA-SEAP reporter, read-out: IC50, 17β-HSD3 cell based activity
T1 sequence (P37058 1-310): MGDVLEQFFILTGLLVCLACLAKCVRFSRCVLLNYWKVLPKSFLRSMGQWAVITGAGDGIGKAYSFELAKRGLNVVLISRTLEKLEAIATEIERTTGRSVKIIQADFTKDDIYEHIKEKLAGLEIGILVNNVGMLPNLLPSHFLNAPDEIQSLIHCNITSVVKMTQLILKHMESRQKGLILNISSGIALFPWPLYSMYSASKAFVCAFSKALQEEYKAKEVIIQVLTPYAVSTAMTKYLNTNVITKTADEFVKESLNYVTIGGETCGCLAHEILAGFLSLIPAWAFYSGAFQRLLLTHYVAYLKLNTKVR
Experimental: Cultured MDA MB 453/17β-HSD3 cells were trypsinized, spun at 1000 rpm for 10 minutes, and resuspended in DMEM/10% cFBS supplemented with 5 mM BES at a concentration of 4×10^7 cells per mL. The cells (aliquots of 1×10^7 cells) were then transiently transfected with 3 μg of the PSA-SEAP construct by electroporation at 0.22 kVolts and 960 μFD with a time constant of […]. After a short recovery period, the cells were spun down and resuspended in DMEM/10% cFBS and plated into 96-well tissue culture plates (5×10^5 cells per well in 50 μL). After overnight adherence, the compounds were diluted in DMEM/10% and cFBS was added to the cells. 24 hours later, the medium was removed, fresh media containing the compounds was added in the presence of 10 nM Androstenedione, and this mixture was allowed to incubate for 24 hours. 25 μL of the culture supernatant was then removed and plated into 96-well black Optiplates (Perkin Elmer) for SEAP measurement as described by the reagent manufacturer (Tropix). Briefly, the supernatant was heat inactivated at 65° C. for 30 minutes and then allowed to cool to room temperature. Assay buffer (25 μL, Tropix) was then added and allowed to mix for 5 minutes followed by the addition of the Reaction buffer (25 μL, Tropix) and the plates were then incubated for 20 minutes in the dark. Plates were then read using a Packard Instruments TopCount with luminescent detection and signal was captured for 10 seconds per well and photon emission (cps) was averaged. A standard MTS assay (Promega) as described by the manufacturer, was performed in parallel to normalize the data based on cell numbers. Data analysis including percent inhibition and IC50 determination, based on 10 point serially diluted curves in duplicate, was then performed using Microsoft Excel and XLFit.
The analysis of 17β-HSD3 steroid conversion by TLC is hampered by the limitation to examine large numbers of compounds. […] To test this system, a prostate specific antigen (PSA) reporter plasmid was transfected into MDA-MB453 cells stably expressing 17β-HSD3 and stimulated with different concentrations of androstenedione (FIG. 5B).
To evaluate the suitability of this cellular assay for monitoring 17β-HSD3 cell based activity, the inhibitory effects of 18β-glycyrrhetinic acid and […] were examined.

[2] = target: T1, 17β-HSD3; assay: 17β-HSD3 scintillation proximity assay (SPA); format: biochemical; set-up: made in house; CHAPS-solubilised 100,000 x g supernatant; conditions: for 17β-HSD3 inhibitory activity in the SPA: FIG. 3B
Experimental: HEK293/17β-HSD3 cells were harvested by scraping or treatment with Cell Dissociation Buffer (Invitrogen) and collected in ice cold Phosphate Buffered Saline (PBS) containing a protease inhibitor cocktail (Complete Tabs, Roche Diagnostics). The cells were then pelleted by centrifugation at 1000 rpm and washed once more in the same buffer. The cells were then resuspended in 2× the cell pellet volume with ice cold lysis buffer (40 mM Tris-HCl pH7.5, 2 mM DTT, 1 mM EDTA, 10% Glycerol (v/v), 0.5% CHAPS (w/v), 1M 1-(3-sulfopropyl)pyridinium hydroxide, Complete Tab(s)) and dounce homogenized on ice. The crude lysate was then incubated on ice for 60 minutes to allow for membrane protein solubilization, followed by centrifugation at 100,000×g for 60 minutes at 4° C. The supernatant was then removed and dialyzed overnight at 4° C. against the enzyme storage buffer (40 mM Tris-HCl pH 7.5, 40 mM KCl, 2 mM DTT, 1 mM EDTA, 20% Glycerol (v/v), Complete Tab(s)). Protein concentration was determined by the Bradford assay, the enzyme was aliquotted, and stored at −80° C. Activity was assessed using the SPA described below.
SPA beads conjugated to anti-mouse IgG were incubated overnight in SPA Bead Buffer (50 mM Tris pH 8.0, 10% Glycerol (v/v)), with anti-Testosterone monoclonal antibody (2 μg antibody per 1 mg of SPA beads) under gentle rotation. The antibody saturated bead complex was then spun down at 500 rpm for 10 minutes at 4° C. and the beads were resuspended in SPA Bead Buffer at a final concentration of 0.5 mg/160 μL. The anti-T/SPA Beads were then stored at 4° C. until needed. Enzymatic assays were conducted in 30 μL total reaction volumes in 96-well white Optiplates (Perkin Elmer). The reaction buffer consisted of 50 mM MES pH 6.0, 2 mM DTT, 0.1% CHAPS, 3 mM NADPH, 10% Glycerol (v/v), 850 nM 4-Androstene-3,17-Dione, and 50 nM [3H]4-Androstene-3,17-Dione (Specific Activity 70–110Ci/mmol). Compounds were diluted such that the final concentration of ethanol and DMSO would not exceed 3% (v/v) and 1% (v/v) respectively, corresponding to concentrations that had little or no effect on enzymatic activity (data not shown). Previously prepared and frozen 17β-HSD3 enzyme was diluted into ice cold buffer containing 50 mM Mes, 40 mM KCl, 2 mM DTT, 1 mM EDTA, and 10% glycerol (v/v) and added last to the reaction mixture. The reaction was allowed to proceed for 60 minutes at room temperature and was stopped by the addition of 10 μL of 0.1N HCl. After the reactions were stopped, an excess of the anti-T/SPA Beads (0.5 mg) were added to each well to a final volume of 200 μL. The plates were sealed and shaken at ˜200 rpm on an orbital shaker at room temp for at least 90 minutes or overnight at 4° C. After allowing the beads to settle, the amount of [3H]Testosterone produced in each well was determined by scintillation counting on a Perkin Elmer TopCount instrument and collected as DPMs. The data was then analyzed and percent inhibition and/or IC50 values, based on 10 point serially diluted curves in duplicate or triplicate, were calculated using Microsoft Excel and XLFit programs. […] Input samples and unbound supernatants, from the enzymatic reactions, were quantitated by scintillation counting to aid in the calculation of bound versus free testosterone produced. Km values were calculated using the Lineweaver-Burke formula and plots where 1/v=(Km+[s])/(Vmax [s]). […]

Row | Structure (SMILES) | pIC50 ([1]; FIG. 5C) | 17β-HSD3 inhibitory activity in the SPA [2] | pIC50 [1] | pIC50 ([2]; read-out: IC50, 17β-HSD3 biochemical activity)
1 | C[C@]12C=CC(=O)C=C1C(=O)C[C@@H]1[C@@H]2CC[C@]2(C)C(=O)CC[C@@H]12 [1,4-androstadiene-1,6,17-trione] | 5.80 | potent inhibitory activity | – | –
2 | COc1ccccc1CCNC(=O)c1cc(Oc2ccccc2)ccc1NC(=O)c1ccc(O)c(Cl)c1 [2-[(3-chloro-4-hydroxybenzoyl)amino]-N-[2-(2-methoxyphenyl)ethyl]-5-phenoxybenzamide] | – | – | 6.52 | 7.22
3 | CC1(C)[C@@H](O)CC[C@]2(C)[C@H]3C(=O)C=C4[C@@H]5C[C@@](C)(C(=O)O)CC[C@]5(C)CC[C@@]4(C)[C@]3(C)CC[C@@H]12 [18β-glycyrrhetinic acid] | 5.42 | potent inhibitory activity | – | –
